By IC50 is commonly meant the point on the concentration scale where inhibition reaches its midpoint. One may read the inhibition as the relative decrease from the control value, in per cent.

Read-outs that look alike come from different tables or passages of the source.

Data set [1] has as its system HCT116. Also on record: method as in PMID 26854375. Conditions: literature lead, Figure 1; cited from earlier work.
For a further data set, the system named is AGS. The settings on record: literature lead, Figure 1; cited from earlier work.
The test system of another data set is KB. Details: method as in PMID 23635011. Conditions: literature lead, Figure 1; cited from earlier work.
In data set [2] the test system is HCT116. Nature of the data set: MTT antiproliferative assay, HCT116. It counts as cell-based, human. The method, boiled down: (§1)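 9 × 10^3 cells/well, 24 h attach; cpd 1–100 μM (4 concs) × 48 h, 37 °C, 5% CO2, DMEM/RPMI1640 + 10% FBS; MTT 2 mg·mL^−1 final, 4 h; DMSO; OD 492 nm; IC50 from % inhibition.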
A general note: Tetrazolium assays rely on reduction of a dye to a coloured formazan, in cell work by metabolically active cells.

The test system of data set [3] is A549. Nature of the data set: MTT antiproliferative assay, A549. It counts as cell-based, human. Conditions: Homo sapiens, A549, 48 h, MTT. The method, boiled down:
as §1

In the next data set the test system is MCF-7. In words: MTT antiproliferative assay, MCF-7. The data set is classed as cell-based, human. The essentials: as §1
For data set [4], the system named is HepG-2 cells. Nature of the data set: Apoptosis analysis by flow cytometry (annexin V-FITC/PI). The data set is classed as cell-based, human. Conditions: 48 h, control 13.65%. As to the method: Apoptosis was detected using an Apoptosis Detection Kit (Invitrogen, Eugene, OR, USA). In brief, cells were cultured in […] (5.0 × 10^5 cells per well) and incubated at 37 °C for 12 h. Cells with exponential growth were then incubated with compound 2n at different concentrations (5, 10 and 20 μM). Following 48 h of incubation, the cells were collected, washed twice with PBS and once with 1binding buffer, and then stained with […] of annexin V-FITC and […] of PI (5 mg·mL^−1) in 1 × binding buffer for 30 min at 20 °C in the dark. Apoptotic cells were enumerated using a FACSCalibur flow cytometer with Cell Quest software (Becton–Dickinso, Franklin Lakes, NJ, USA).

For a further data set, the system named is HepG-2. Nature of the data set: MTT antiproliferative assay, HepG-2. It counts as cell-based, human. The essentials:
as §1

Data set [5] relates to human normal liver (L02) cells. Nature of the data set: MTT assay on normal cell line L02. It counts as cell-based.
The test system of the next data set is BEL7402. In words: MTT antiproliferative assay, BEL7402. The data set is classed as cell-based, human. Conditions: Homo sapiens, Bel-7402, 48 h, MTT. The method, boiled down:
as §1

In the next data set the test system is Hela. In words: MTT antiproliferative assay, Hela. The data set is classed as cell-based, human. The settings on record: Homo sapiens, 48 h, MTT. The essentials: as §1
The subject of data set [6] is HepG-2 cells. Nature of the data set: Cell cycle analysis by flow cytometry (PI). The data set is classed as cell-based, human. The settings on record: 48 h, control 11.47%. As to the method: HepG-2 cells were plated in […] (5.0 × 10^5 cells per well) and incubated at 37 °C for 12 h. Exponentially growing cells were then incubated with compound 2n at different concentrations (5, 10 and 20 μM). After 48 h, untreated cells (control) or cells treated with compound 2n were centrifuged at 1000 rpm (177 g) for 10 min, and then fixed in 70% ethanol at −20 °C for at least 24 h. The cells were subsequently resuspended in phosphate-buffered saline (PBS) containing 0.1mg mL^−1 RNase A and 5 μg·mL^−1 propidium iodide (PI). The cellular DNA content for the cell cycle distribution analysis was measured by flow cytometry using a FACS Calibur flow cytometer with Cell Quest software (Becton-Dickinson, Franklin Lakes, NJ, USA), plotting at least 30,000 events per sample. The percentage of cells in the G1, S and G2 phases of the cell cycle were determined using the ModFit LT V4.0 software package (Verity Software, Topsham, ME, USA).
(In general: A flow cytometer gives signals particle by particle.)

For data set [7], the system named is A549. The settings on record: literature lead, Figure 1; cited from earlier work.
Setting [8] is: IC50 on normal cells (L02)/IC50 on tumour cells.

On to `CC1CCC2(C(=O)O)CCC3(C)C(=CCC4C5(C)CC(=Cc6cc(O)ccc6O)C(=O)C(C)(C)C5CCC43C)C2C1C` (stereo not drawn) [Compound C], for which, in the data set with HCT116 [1], the half-maximal inhibitory concentration (IC50) was less than 0.1 µM.

In the case of `O=c1ccc2cc3ccoc3c(OCc3cn(-c4ccc(C(F)(F)F)cc4)nn3)c2o1` [Compound B], the half-inhibitory concentration (IC50) in the data set with AGS is 7.5 µM.

For the molecule `C[C@]12CC[C@H](O)CC1=CCC1C2CC[C@]2(C)C(=O)/C(=C/c3cccc(Cl)c3)CC12` (stereo partly drawn) [Compound D], the IC50 in the data set with KB was 0.6 µM.

On to `CC12CCC3C(CC=C4CC(O)CCC43C)C1C/C(=C\c1cn(-c3ccc(I)cc3)nn1)C2=O` (stereo not drawn) [Compound 2n, (E)-3-hydroxy-16-((1-(4-iodophenyl)-1H-1,2,3-triazol-4-yl)methylene)-10,13-dimethyl-1,3,4,7,8,9,10,11,12,13,15,16-dodecahydro-2H-cyclopenta[a]phenanthren-17(14H)-one], for which the inhibition at 100 µM in the data set with HCT116 [2] (Homo sapiens, HCT-116, 100 μM, 48 h, MTT, read-out: % Growth Inhibition at 100 μM HCT116) was 65.5%; in the data set with A549 [3] (100 μM, read-out: % Growth Inhibition at 100 μM A549), 46.8%; in the data set with MCF-7 (Homo sapiens, MCF7, 100 μM, 48 h, MTT, read-out: % Growth Inhibition at 100 μM MCF-7) it was 81.3%; with HepG-2 (Homo sapiens, HepG2, 100 μM, 48 h, MTT, read-out: % Growth Inhibition at 100 μM HepG-2), 83%; in data set [5] (Homo sapiens, L02, 100 μM, 48 h, MTT, normal cells, read-out: % Growth Inhibition at 100 μM L02) it was 34.2%; in the data set on BEL7402 (100 μM, read-out: % Growth Inhibition at 100 μM BEL7402), less than 5%. The inhibition at 100 µM in the data set with Hela (100 μM, read-out: % Growth Inhibition at 100 μM Hela) worked out at 17.3%. Further, the IC50 in the data set on HCT116 [2] (Homo sapiens, HCT-116, 48 h, MTT) was 31 µM; with A549 [3], greater than 100 µM; in the data set on MCF-7 (Homo sapiens, MCF7, 48 h, MTT), 9.18 µM; with HepG-2 (Homo sapiens, HepG2, 48 h, MTT), 9.1 µM; in data set [5] (Homo sapiens, L02, 48 h, MTT, normal cell line), greater than 100 µM; in the data set with BEL7402, greater than 100 µM. The same molecule showed an IC50 in the data set with Hela (HeLa) greater than 100 µM. In addition, the “Selectivity Index HCT116” value in the data set with HCT116 [2] (setting [8]) is greater than 3.22. Moreover, the “Selectivity Index MCF-7” value with MCF-7 (setting [8]) was greater than 10.89. The “percentage of total apoptotic cells (right quadrants)” value is recorded as 22.24% in the data set with HepG-2 cells [4] (HepG-2, 5.0 µM) and 27.24% with HepG-2 cells [4] (HepG-2, 10.0 µM). Besides, the “Selectivity Index HepG-2” value with HepG-2 (setting [8]) is given as greater than 10.99. Also, in data set [5] (in words), the “toxicity in human normal liver (L02) cells” value is recorded as “not toxic”. Besides, the “proportion of cells in the G2 phase” value was determined as 11.14% with HepG-2 cells [6] (HepG-2, 5.0 µM); 0.41% in the data set on HepG-2 cells [6] (HepG-2, 10.0 µM); 0.0% with HepG-2 cells [6] (HepG-2, 20.0 µM).

Take `COc1ccccc1-n1cc(COC(=O)C23CCC(C)C(C)C2C2=CCC4C5(C)CCC(=O)C(C)(C)C5CCC4(C)C2(C)CC3)nn1` (stereo not drawn) [Compound A]: the IC50 in the data set with A549 [7] is less than 0.1 µM.

The values above are taken from publication PMC6225165, “Design and Synthesis of Novel Dehydroepiandrosterone Analogues as Potent Antiproliferative Agents” (Molecules : A Journal of Synthetic Chemistry and Natural …, 2018).
